US20160376240A1, “6 Phenyl or 6 Pyridin 3 YL Indazole Derivatives and Methods of Use” (ABBVIE INC., priority 2014, published 2016)

Target: T1, TrkA (Homo sapiens, UniProt P04629)
T1 construct: purchased Invitrogen PV3144
Experiment: TrkA kinase inhibition, HTRF assay
Type: biochemical
Details: LCK peptide substrate 125 nM, TrkA 2-10 nM pre-incubated with ATP 200 μM
Procedure, shortened: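 TrkA (2-10 nM) preactivated 20 min with 200 μM ATP in HEPES pH 7.4 with Mg2+/Mn2+, then compound for 10 min, then 125 nM biotinylated LCK-peptide for 1 h at ambient temperature. HTRF 665/620 ratio read; IC50 fitted from initial-rate percent inhibition.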

T1 sequence (P04629 33-796): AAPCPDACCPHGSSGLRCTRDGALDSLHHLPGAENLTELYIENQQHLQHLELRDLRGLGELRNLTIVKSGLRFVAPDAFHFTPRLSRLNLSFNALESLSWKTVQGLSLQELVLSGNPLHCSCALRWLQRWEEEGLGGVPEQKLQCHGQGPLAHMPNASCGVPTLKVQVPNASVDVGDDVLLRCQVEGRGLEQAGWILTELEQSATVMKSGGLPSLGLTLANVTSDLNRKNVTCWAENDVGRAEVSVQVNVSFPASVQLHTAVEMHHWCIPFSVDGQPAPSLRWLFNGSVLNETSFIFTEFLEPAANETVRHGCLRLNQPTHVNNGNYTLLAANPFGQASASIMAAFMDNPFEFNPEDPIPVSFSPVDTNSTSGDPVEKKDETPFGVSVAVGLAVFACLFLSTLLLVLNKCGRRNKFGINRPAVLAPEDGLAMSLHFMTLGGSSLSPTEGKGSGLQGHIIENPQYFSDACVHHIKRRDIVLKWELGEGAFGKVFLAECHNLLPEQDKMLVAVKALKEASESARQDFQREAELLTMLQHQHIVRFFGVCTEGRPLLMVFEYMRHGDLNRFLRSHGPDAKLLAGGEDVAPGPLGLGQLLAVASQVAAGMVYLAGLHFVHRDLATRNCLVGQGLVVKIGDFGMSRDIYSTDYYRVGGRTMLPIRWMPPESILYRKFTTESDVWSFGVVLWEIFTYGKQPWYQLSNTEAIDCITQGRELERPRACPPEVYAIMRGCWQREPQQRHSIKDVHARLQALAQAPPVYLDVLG

Compound | IC50
CC(C)(C)C(=O)N1CCN(c2cc(-c3cc(OC4CCOCC4)c4c(N)n[nH]c4c3)ccc2C(=O)NC2CC2)CC1 [Example 25, 4-[3-amino-4-(tetrahydro-2H-pyran-4-yloxy)-1H-indazol-6-yl]-N-cyclopropyl-2-[4-(2,2-dimethylpropanoyl)piperazin-1-yl]benzamide] | 0.188 µM
CCNC(=O)c1ccc(-c2cc(OC3CCCC3)c3cn[nH]c3c2)cc1N1CCN(c2ccccc2)CC1 [Example 120, 4-[4-(cyclopentyloxy)-1H-indazol-6-yl]-N-ethyl-2-(4-phenylpiperazin-1-yl)benzamide] | 0.0825 µM
NC(=O)c1ccc(-c2cc(OC3CCOCC3)c3c(N)n[nH]c3c2)cc1N1CCN(c2cccc(Cl)c2)CC1 [Example 12, 4-[3-amino-4-(tetrahydro-2H-pyran-4-yloxy)-1H-indazol-6-yl]-2-[4-(3-chlorophenyl)piperazin-1-yl]benzamide] | 0.0029 µM
CNC(=O)c1ccc(-c2cc(OC3CCOCC3)c3c(C)n[nH]c3c2)cc1N1CCN(C(=O)OC)CC1 [Example 153, methyl 4-{2-(methylcarbamoyl)-5-[3-methyl-4-(tetrahydro-2H-pyran-4-yloxy)-1H-indazol-6-yl]phenyl}piperazine-1-carboxylate] | 0.00912 µM
Cc1n[nH]c2cc(-c3ccc(C(=O)NC4CCC4)c(N4CCN(C5CCCCC5)CC4)c3)cc(OC3CCOCC3)c12 [Example 118, N-cyclobutyl-2-(4-cyclohexylpiperazin-1-yl)-4-[3-methyl-4-(tetrahydro-2H-pyran-4-yloxy)-1H-indazol-6-yl]benzamide] | 0.0398 µM
CNC(=O)c1ccc(-c2cc(OC3CCOCC3)c3c(C)n[nH]c3c2)cc1N1CCN(c2ncc(F)cn2)CC1 [Example 165, 2-[4-(5-fluoropyrimidin-2-yl)piperazin-1-yl]-N-methyl-4-[3-methyl-4-(tetrahydro-2H-pyran-4-yloxy)-1H-indazol-6-yl]benzamide] | 1.04 µM
CC(Oc1cc(-c2ccc(C(N)=O)c(N3CCN(C4CC4)CC3)c2)cc2[nH]nc(N)c12)C(F)(F)F (stereo not shown) [Example 97, 4-{3-amino-4-[(1,1,1-trifluoropropan-2-yl)oxy]-1H-indazol-6-yl}-2-(4-cyclopropylpiperazin-1-yl)benzamide] | 0.0273 µM
NC(=O)c1ccc(-c2cc(OC3CCOCC3)c3c(N)n[nH]c3c2)cc1N1CCN(c2cncc(Cl)c2)CC1 [Example 8, 4-[3-amino-4-(tetrahydro-2H-pyran-4-yloxy)-1H-indazol-6-yl]-2-[4-(5-chloropyridin-3-yl)piperazin-1-yl]benzamide] | 0.00442 µM
CNC(=O)c1ccc(-c2cc(O[C@H](C)C(F)(F)F)c3c(N)n[nH]c3c2)cc1N1CCC(O)(c2ccccc2)CC1 [Example 60, 4-(3-amino-4-{[(2R)-1,1,1-trifluoropropan-2-yl]oxy}-1H-indazol-6-yl)-2-(4-hydroxy-4-phenylpiperidin-1-yl)-N-methylbenzamide] | 0.223 µM
CNC(=O)c1ccc(-c2cc(OC3CCOCC3)c3c(C)n[nH]c3c2)cc1OCCOC1CCCCC1 [Example 126, 2-[2-(cyclohexyloxy)ethoxy]-N-methyl-4-[3-methyl-4-(tetrahydro-2H-pyran-4-yloxy)-1H-indazol-6-yl]benzamide] | 0.00474 µM
CNC(=O)c1ccc(-c2cc(OC3CCOCC3)c3c(C)n[nH]c3c2)cc1N1CCN(C(=O)OC(C)(C)C)CC1 [Example 122, tert-butyl 4-{2-(methylcarbamoyl)-5-[3-methyl-4-(tetrahydro-2H-pyran-4-yloxy)-1H-indazol-6-yl]phenyl}piperazine-1-carboxylate] | 0.00814 µM
CC(Oc1cc(-c2ccc(C(N)=O)c(N3CCN(c4ccccn4)CC3)c2)cc2[nH]nc(N)c12)C(F)(F)F (stereo not shown) [Example 94, 4-{3-amino-4-[(1,1,1-trifluoropropan-2-yl)oxy]-1H-indazol-6-yl}-2-[4-(pyridin-2-yl)piperazin-1-yl]benzamide] | 0.00241 µM
4-{3-amino-4-[(1,1,1-trifluoropropan-2-yl)oxy]-1H-indazol-6-yl}-2-(4-cyclopentylpiperazin-1-yl)benzamide [Example 102] | 0.0192 µM
CNC(=O)c1ccc(-c2cc(O[C@@H](C)C(F)(F)F)c3c(N)n[nH]c3c2)cc1N1CCN(C2CCCC2)CC1 [Example 44, 4-(3-amino-4-{[(2S)-1,1,1-trifluoropropan-2-yl]oxy}-1H-indazol-6-yl)-2-(4-cyclopentylpiperazin-1-yl)-N-methylbenzamide] | 0.0253 µM
CNC(=O)c1ccc(-c2cc(OC3CCOCC3)c3c(C)n[nH]c3c2)cc1N1CCN(C(=O)CC2CC2)CC1 [Example 164, 2-[4-(cyclopropylacetyl)piperazin-1-yl]-N-methyl-4-[3-methyl-4-(tetrahydro-2H-pyran-4-yloxy)-1H-indazol-6-yl]benzamide] | 0.00862 µM
CC(Oc1cc(-c2ccc(C(=O)NC3CC3)c(N3CCN(c4ccccc4)CC3)c2)cc2[nH]nc(N)c12)C(F)(F)F (stereo not shown) [Example 26, 4-{3-amino-4-[(1,1,1-trifluoropropan-2-yl)oxy]-1H-indazol-6-yl}-N-cyclopropyl-2-(4-phenylpiperazin-1-yl)benzamide] | 0.0581 µM
CNC(=O)c1ccc(-c2cc(OC3CCOCC3)c3c(C)n[nH]c3c2)cc1N1CCN(C(=O)OCCOC)CC1 [Example 138, 2-methoxyethyl 4-{2-(methylcarbamoyl)-5-[3-methyl-4-(tetrahydro-2H-pyran-4-yloxy)-1H-indazol-6-yl]phenyl}piperazine-1-carboxylate] | 0.0251 µM
CC(=O)C(=O)Nc1ccc(-c2cc(OC3CCOCC3)c3c(C)n[nH]c3c2)cc1N1CCN(C2CCCCC2)CC1 [Example 133, N-{2-(4-cyclohexylpiperazin-1-yl)-4-[3-methyl-4-(tetrahydro-2H-pyran-4-yloxy)-1H-indazol-6-yl]phenyl}-2-oxopropanamide] | 0.0159 µM
CNC(=O)c1ccc(-c2cc(O[C@H](C)C(F)(F)F)c3c(N)n[nH]c3c2)cc1N1CCN(c2ncccn2)CC1 [Example 52, 4-(3-amino-4-{[(2R)-1,1,1-trifluoropropan-2-yl]oxy}-1H-indazol-6-yl)-N-methyl-2-[4-(pyrimidin-2-yl)piperazin-1-yl]benzamide] | 0.0272 µM
NC(=O)c1ccc(-c2ccc3c(N)n[nH]c3c2)cc1N1CCN(c2ccccc2)CC1 [Example 84, 4-(3-amino-1H-indazol-6-yl)-2-(4-phenylpiperazin-1-yl)benzamide] | 0.0243 µM
CC(=O)c1ccc(-c2cc(OC3CCOCC3)c3c(N)n[nH]c3c2)cc1N1CCN(c2ccc(F)cc2)CC1 [Example 17, 1-{4-[3-amino-4-(tetrahydro-2H-pyran-4-yloxy)-1H-indazol-6-yl]-2-[4-(4-fluorophenyl)piperazin-1-yl]phenyl}ethanone] | 0.0134 µM
CNC(=O)c1ccc(-c2cc(O[C@@H](C)C(F)(F)F)c3c(N)n[nH]c3c2)cc1N1CCN(c2cccnc2)CC1 [Example 41, 4-(3-amino-4-{[(2S)-1,1,1-trifluoropropan-2-yl]oxy}-1H-indazol-6-yl)-N-methyl-2-[4-(pyridin-3-yl)piperazin-1-yl]benzamide] | 0.0292 µM
CCOC(=O)N1CCN(c2cc(-c3cc(OC4CCOCC4)c4c(C)n[nH]c4c3)ccc2C(=O)NC)CC1 [Example 134, ethyl 4-{2-(methylcarbamoyl)-5-[3-methyl-4-(tetrahydro-2H-pyran-4-yloxy)-1H-indazol-6-yl]phenyl}piperazine-1-carboxylate] | 0.0127 µM
CNC(=O)c1ccc(-c2cc(OC3CCOCC3)c3cn[nH]c3c2)cc1N1CCN(C2CCCCC2)CC1 [Example 116, 2-(4-cyclohexylpiperazin-1-yl)-N-methyl-4-[4-(tetrahydro-2H-pyran-4-yloxy)-1H-indazol-6-yl]benzamide] | 0.0778 µM
CNC(=O)c1ccc(-c2cc(O[C@H](C)C(F)(F)F)c3c(N)n[nH]c3c2)cc1N1CCC(N2CCOCC2)CC1 [Example 59, 4-(3-amino-4-{[(2R)-1,1,1-trifluoropropan-2-yl]oxy}-1H-indazol-6-yl)-N-methyl-2-[4-(morpholin-4-yl)piperidin-1-yl]benzamide] | 2.55 µM
